Experimental data taken from the NIST ThermoML archive (doi:10.1021/je400184t).

Test: excess molar enthalpy (molar enthalpy of mixing); xn = mol fraction of the nth substance listed
Conditions: 298.15 K, 101 kPa, Liquid, Calvet calorimetry

CN(CCO)CCO [N-methyldiethanolamine] + c1ccncc1
Conditions	excess molar enthalpy [kcal/mol]
x2 = 0.5606	-0.0203
x2 = 0.5629	-0.0203
x2 = 0.5652	-0.0201
x2 = 0.5675	-0.0201
x2 = 0.5698	-0.0198
x2 = 0.5721	-0.0198
x2 = 0.5744	-0.0191
x2 = 0.5767	-0.0196
x2 = 0.579	-0.0194
x2 = 0.5813	-0.0194
x2 = 0.5836	-0.0191
x2 = 0.5859	-0.0191
x2 = 0.5882	-0.0189
x2 = 0.5905	-0.0189
x2 = 0.5928	-0.0186
x2 = 0.595	-0.0186
x2 = 0.5974	-0.0184
x2 = 0.5996	-0.0182
x2 = 0.6019	-0.0182
x2 = 0.6042	-0.0179
x2 = 0.6065	-0.0179
x2 = 0.6088	-0.0177
x2 = 0.6111	-0.0177
x2 = 0.6134	-0.0174
x2 = 0.6157	-0.0174
x2 = 0.618	-0.0172
x2 = 0.6203	-0.0172
x2 = 0.6226	-0.017
x2 = 0.6249	-0.0167
x2 = 0.6272	-0.0167
x2 = 0.6295	-0.0165
x2 = 0.6318	-0.0165
x2 = 0.6341	-0.0163
x2 = 0.6363	-0.0163
x2 = 0.6386	-0.016
x2 = 0.6409	-0.016
x2 = 0.6432	-0.0158
x2 = 0.6455	-0.0155
x2 = 0.6478	-0.0155
x2 = 0.6501	-0.0153
x2 = 0.6524	-0.0153
x2 = 0.6547	-0.0151
x2 = 0.657	-0.0148
x2 = 0.6593	-0.0148
x2 = 0.6616	-0.0146
x2 = 0.6639	-0.0146
x2 = 0.6662	-0.0143
x2 = 0.6685	-0.0143
x2 = 0.6707	-0.0141
x2 = 0.6731	-0.0139
x2 = 0.6753	-0.0139
x2 = 0.6776	-0.0136
x2 = 0.6799	-0.0136
x2 = 0.6822	-0.0134
x2 = 0.6845	-0.0131
x2 = 0.6868	-0.0131
x2 = 0.6891	-0.0129
x2 = 0.6914	-0.0127
x2 = 0.6937	-0.0127
x2 = 0.696	-0.0124
x2 = 0.6983	-0.0124
x2 = 0.7006	-0.0122
x2 = 0.7029	-0.012
x2 = 0.7052	-0.012
x2 = 0.7075	-0.0117
x2 = 0.7097	-0.0115
x2 = 0.712	-0.0115
x2 = 0.7143	-0.0112
x2 = 0.7166	-0.0112
x2 = 0.7189	-0.011
x2 = 0.7212	-0.0108
x2 = 0.7235	-0.0108
x2 = 0.7258	-0.0105
x2 = 0.7281	-0.0103
x2 = 0.7304	-0.0103
x2 = 0.7327	-0.01
x2 = 0.735	-0.0098
x2 = 0.7373	-0.0098
x2 = 0.7396	-0.00956
x2 = 0.7419	-0.00956
x2 = 0.7442	-0.00932
x2 = 0.7464	-0.00908
x2 = 0.7488	-0.00908
x2 = 0.751	-0.00884
x2 = 0.7533	-0.0086
x2 = 0.7556	-0.0086
x2 = 0.7579	-0.00837
x2 = 0.7602	-0.00813
x2 = 0.7625	-0.00813
x2 = 0.7648	-0.00789
x2 = 0.7671	-0.00765
x2 = 0.7694	-0.00765
x2 = 0.7717	-0.00741
x2 = 0.774	-0.00717
x2 = 0.7763	-0.00717
x2 = 0.7786	-0.00693
x2 = 0.7809	-0.00669
x2 = 0.7827	-0.00669
x2 = 0.7869	-0.00645
x2 = 0.7911	-0.00598
x2 = 0.7953	-0.00574
x2 = 0.7996	-0.0055
x2 = 0.8039	-0.00526
x2 = 0.8083	-0.00502
x2 = 0.8127	-0.00454
x2 = 0.8172	-0.0043
x2 = 0.8217	-0.00406
x2 = 0.8263	-0.00359
x2 = 0.8309	-0.00335
x2 = 0.8356	-0.00311
x2 = 0.8404	-0.00287
x2 = 0.8451	-0.00239
x2 = 0.85	-0.00215
x2 = 0.8549	-0.00191
x2 = 0.8598	-0.00167
x2 = 0.8648	-0.0012
x2 = 0.8699	-0.000956
x2 = 0.875	-0.000717
x2 = 0.8802	-0.000478
x2 = 0.8855	-0.000239
x2 = 0.8908	0
x2 = 0.8962	0.000239
x2 = 0.9016	0.000478
x2 = 0.9071	0.000717
x2 = 0.9127	0.000956
x2 = 0.9183	0.0012
x2 = 0.9241	0.00143
x2 = 0.9298	0.00143
x2 = 0.9357	0.00167
x2 = 0.9416	0.00167
x2 = 0.9477	0.00167
x2 = 0.9538	0.00191
x2 = 0.9599	0.00167
x2 = 0.9662	0.00167
x2 = 0.9725	0.00167
x2 = 0.9789	0.00143
x2 = 0.9854	0.0012
x2 = 0.992	0.000717
x2 = 0.9987	0.000239
